“Also recorded” adds a separate entry of the source.

Experimental findings from patent US12109184B2, “Personalized methods of treating cancer” (CANCER RESEARCH TECHNOLOGY LIMITED, priority 2020, dated 2024) are described below.

Common to all, as to assay type: cell-based
Assay [1] has as its system MTAP-deleted HCT116 cells. The assay can be described thus: Cell counting during cysteine starvation, MTAP-deleted HCT116. The conditions noted are these: −Cys, low levels of methionine. An excerpt:
[NT] Successfully transfected cells were selected with puromycin and grown as clonal colonies. Clones were selected based initially on MTA efflux measured by liquid chromatography mass spectrometry (LC-MS). Clones with greatest MTA efflux were selected, and methylthioadenosine phosphorylase knockout (MTAP-KO) was then confirmed by western blot. MTAP-KO HCT116 cells were transfected with pCMV-Hygro-MTAP and pCMV-Hygro-negative control vector, selected using hygromycin B, and grown as clonal colonies. Clones were selected based initially on MTA efflux measured by LC-MS. Clones with low MTA efflux were selected, then MTAP re-expression was confirmed by western blot. […] DAPI-stained cell nuclei were detected via microscopy. […] For experiments using spermine oxidase (SMOX) and polyamine oxidase (PAOX) inhibitors or MTOB, cells were pre-treated with stated concentrations for 16 hours in complete medium. After pre-treatment, cells were washed in PBS, and treatment was continued in complete or cysteine-free medium for stated times. After treatment was finished, cells were fixed and stained as described above. For experiments using MTA, polyamines, GPX4 and CSE inhibitors, treatment started at the same time as cysteine starvation. For experiments involving hypoxic conditions, cells were seeded in normoxic conditions and allowed to adhere for 24 hours before control and cysteine starvation medium was added and cells were immediately transferred either to a humidified cell culture incubator set to 37° C. in 20% O2 (normoxia), or a hypoxia chamber set to 37° C. in 1% O2 (hypoxia) for the stated times. Cells were fixed immediately and stained as described above.

Assay [2] relates to MDA-MB-231, MIAPaCa-2 and PANC-1 cells. The assay can be described thus: Cell counting during cysteine starvation, starvation-sensitive cell lines. The note with it: medium without cysteine. As for the experimental part: The base medium formulation contained 0.2 mM L-histidine, 0.4 mM L-isoleucine, 0.4 mM L-leucine, 0.4 mM L-lysine, 0.2 mM L-phenylalanine, 0.4 mM L-threonine, 0.08 mM L-tryptophan, 0.4 mM L-valine, 0.2 mM L-arginine, 2 mM L-glutamine, 0.2 mM L-tyrosine, 0.4 mM L-alanine, 0.3 mM L-proline, 0.15 mM L-glutamic acid, 0.1 mM L-aspartic acid, 0.2 mM L-asparagine, and 0.4 mM glycine.
DAPI-stained cell nuclei were detected via microscopy.
AMD1 inhibitor sardomozide/SAM486A, GPX4 inhibitor RSL3, and CSE inhibitor beta-cyano-L-alanine were used.
For experiments using spermine oxidase (SMOX) and polyamine oxidase (PAOX) inhibitors or MTOB, cells were pre-treated with stated concentrations for 16 hours in complete medium. After pre-treatment, cells were washed in PBS, and treatment was continued in complete or cysteine-free medium for stated times. After treatment was finished, cells were fixed and stained as described above. For experiments using MTA, polyamines, GPX4 and CSE inhibitors, treatment started at the same time as cysteine starvation. For experiments involving hypoxic conditions, cells were seeded in normoxic conditions and allowed to adhere for 24 hours before control and cysteine starvation medium was added and cells were immediately transferred either to a humidified cell culture incubator set to 37° C. in 20% O2 (normoxia), or a hypoxia chamber set to 37° C. in 1% O2 (hypoxia) for the stated times. Cells were fixed immediately and stained as described above.

The subject of assay [3] is MDA-MB-231, PANC-1, and MIAPaCa-2 cells. Description: CellROX assay on live cells, starvation-sensitive cell lines. The note with it: cysteine starved, MTAP deleted cells, 18 h. On the procedure:
Cells were seeded as described above. Live cells were stained with Hoechst 33342 nuclear stain for 20 min. The medium was removed, and cells were stained in 100 μl medium containing CellTracker™ Green CMFDA Dye and Hoechst stain for 40 min. The cells were then washed with PBS, and 300 μl of the relevant experimental medium was added for 1 hour. Then, CellROX® Deep Red was spiked into the medium, and the cells were incubated for 40 min. The medium was removed, the cells were washed with PBS, and new relevant experimental medium including CellROX was added. The cells were imaged using an Operetta automated microscope platform set to 37° C. in 5% CO2 every hour for 16-24 hours. I

The subject of assay [4] is breast, colorectal and pancreatic cancer cell lines. Description: Cell counting in complete or cysteine-free medium, cell lines not given. The note with it: supplementation during cysteine starvation.
For assay [5], the system named is MTAP-expressing HCT116 cells. The assay can be described thus: Cell counting during cysteine starvation, MTAP-expressing HCT116. The conditions noted are these: −Cys with or without methionine. An excerpt: [NT] Successfully transfected cells were selected with puromycin and grown as clonal colonies. Clones were selected based initially on MTA efflux measured by liquid chromatography mass spectrometry (LC-MS). Clones with greatest MTA efflux were selected, and methylthioadenosine phosphorylase knockout (MTAP-KO) was then confirmed by western blot. MTAP-KO HCT116 cells were transfected with pCMV-Hygro-MTAP and pCMV-Hygro-negative control vector, selected using hygromycin B, and grown as clonal colonies. Clones were selected based initially on MTA efflux measured by LC-MS. Clones with low MTA efflux were selected, then MTAP re-expression was confirmed by western blot. […] DAPI-stained cell nuclei were detected via microscopy. For experiments using spermine oxidase (SMOX) and polyamine oxidase (PAOX) inhibitors or MTOB, cells were pre-treated with stated concentrations for 16 hours in complete medium. After pre-treatment, cells were washed in PBS, and treatment was continued in complete or cysteine-free medium for stated times. After treatment was finished, cells were fixed and stained as described above. For experiments using MTA, polyamines, GPX4 and CSE inhibitors, treatment started at the same time as cysteine starvation. For experiments involving hypoxic conditions, cells were seeded in normoxic conditions and allowed to adhere for 24 hours before control and cysteine starvation medium was added and cells were immediately transferred either to a humidified cell culture incubator set to 37° C. in 20% O2 (normoxia), or a hypoxia chamber set to 37° C. in 1% O2 (hypoxia) for the stated times. Cells were fixed immediately and stained as described above.

For the molecule `CSCC[C@H](N)C(=O)O` [methionine], in assay [1], the “effect of methionine on survival during cysteine starvation” value is “inhibited the ability of MTAP deleted cells to survive”. Moreover, the “sensitivity to cysteine starvation versus methionine concentration” value in assay [2] (methionine 0 to 10 μM, 17 h and 41 h) is “remained sensitive to cysteine starvation down to 5 μM methionine”; in assay [2] (methionine 10 μM-1000 μM, 20 h), “remained highly sensitive”. In assay [3], the “ROS levels (CellROX) in response to methionine concentration” value is on record as “increased in a dose-dependent manner”. Also, the “rescue from cysteine starvation-induced cell death (summary in discussion)” value in assay [4] is listed as “unable to provide rescue; also recorded: did not”. The “effect of presence of methionine during cysteine starvation” value in assay [5] was “advantageous”.
